# Measured values published in patent US20120076899A1, “SHELF STABLE MONATIN SWEETENED BEVERAGE” (Cargill, Incorporated, priority 2009, published 2012).
# Test: Total indole concentrations under various light, O2 and EMIQ conditions
# Type: physicochemical
# Protocol: Synthetic R,R-monatin containing approximately 95.4% R,R-monatin monopotassium salt (dry basis) was obtained from CSIR (Modderfontein, South Africa). About 35 mg/L of this monatin was placed in a buffered solution at a pH of about 2.8-3.0 comprising 9 mM citric acid-trisodium citrate in high purity water and preserved with about 150 mg/L sodium benzoate. To some samples 200 ppm SANMELIN™ AO-3000 enzymatically modified isoquercitrin (EMIQ) (San-Ei Gen F.F.I.—Osaka, Japan) was added. Dissolved O2 levels were either increased by bubbling compressed air or reduced by bubbling N2 (99.9% purity) through these samples until the target O2 concentrations were achieved. Dissolved O2 levels were determined at 20° C. using a FOXY fluorescence quenching O2 analyzer from Ocean Optics (Dunedin, Fla.). Samples were stored in clear, glass ampules (˜10 mL) after O2 adjustment and heat-sealed to create an air-tight enclosure. The samples were then either stored in the dark, or exposed to light continuously (24 hours per day) in a light box (˜2200 lux light intensity) configured with a rotating carousel to provide even illumination. The source of light was provided by ultra-violet (UV) light wavelength transmitting bulbs and standard fluorescent bulbs. The heat produced by the lights warmed the samples to a temperature of about 28° C. Duplicate samples of each treatment were analyzed weekly for total indole concentrations via the following method.
# Total indole (monatin and its intramolecular rearrangement products, monatin lactone and monatin lactam) concentrations were quantified by reversed phase HPLC at 40° C. using an Agilent Zorbax Eclipse C18 column with UV detection at 280 nm by PDA. The compounds were eluted by a gradient mobile phase consisting of (A) 1:1 methanol and acetonitrile (v:v) with 0.3% formic acid and 10 mM ammonium formate and (B) 0.3% formic acid in water with 10 mM ammonium formate. The integrated peak areas for the three (3) compounds were expressed in terms of monatin concentration (mg/L) based on a standard curve prepared for monatin. Thus, the extinction coefficient for monatin was applied to estimate concentrations of monatin lactone and monatin lactam since standards for these compounds were unavailable.
structure (smiles),measurement,setting,value
"NC(CC(O)(Cc1c[nH]c2ccccc12)C(=O)O)C(=O)O (stereo not shown) [R,R-monatin, 2-hydroxy-2-(indol-3-ylmethyl)-4-aminoglutaric acid]",Total Indole Concentration,"Light Exposure NO, O2 8.3 mg/L, EMIQ 0 ppm, 0 Days",36.3 mg/L
same,Total Indole Concentration,"Light Exposure NO, O2 8.3 mg/L, EMIQ 0 ppm, 7 Days",36.5 mg/L
same,Total Indole Concentration,"Light Exposure NO, O2 8.3 mg/L, EMIQ 0 ppm, 14 Days",37.0 mg/L
same,Total Indole Concentration,"Light Exposure NO, O2 8.3 mg/L, EMIQ 0 ppm, 21 Days",41.0 mg/L
same,Total Indole Concentration,"Light Exposure NO, O2 8.3 mg/L, EMIQ 0 ppm, 28 Days",37.5 mg/L
same,Total Indole Concentration,"Light Exposure NO, O2 8.3 mg/L, EMIQ 200 ppm, 0 Days",35.5 mg/L
same,Total Indole Concentration,"Light Exposure NO, O2 8.3 mg/L, EMIQ 200 ppm, 7 Days",35.3 mg/L
same,Total Indole Concentration,"Light Exposure NO, O2 8.3 mg/L, EMIQ 200 ppm, 14 Days",43.3 mg/L
same,Total Indole Concentration,"Light Exposure NO, O2 8.3 mg/L, EMIQ 200 ppm, 21 Days",36.2 mg/L
same,Total Indole Concentration,"Light Exposure NO, O2 8.3 mg/L, EMIQ 200 ppm, 28 Days",33.5 mg/L
same,Total Indole Concentration,"Light Exposure NO, O2 <0.5 mg/L, EMIQ 0 ppm, 0 Days",34.7 mg/L
same,Total Indole Concentration,"Light Exposure NO, O2 <0.5 mg/L, EMIQ 0 ppm, 7 Days",32.8 mg/L
same,Total Indole Concentration,"Light Exposure NO, O2 <0.5 mg/L, EMIQ 0 ppm, 14 Days",34.4 mg/L
same,Total Indole Concentration,"Light Exposure NO, O2 <0.5 mg/L, EMIQ 0 ppm, 21 Days",32.8 mg/L
same,Total Indole Concentration,"Light Exposure NO, O2 <0.5 mg/L, EMIQ 0 ppm, 28 Days",35.2 mg/L
same,Total Indole Concentration,"Light Exposure NO, O2 <0.5 mg/L, EMIQ 200 ppm, 0 Days",34.7 mg/L
same,Total Indole Concentration,"Light Exposure NO, O2 <0.5 mg/L, EMIQ 200 ppm, 7 Days",32.8 mg/L
same,Total Indole Concentration,"Light Exposure NO, O2 <0.5 mg/L, EMIQ 200 ppm, 14 Days",34.4 mg/L
same,Total Indole Concentration,"Light Exposure NO, O2 <0.5 mg/L, EMIQ 200 ppm, 21 Days",32.8 mg/L
same,Total Indole Concentration,"Light Exposure NO, O2 <0.5 mg/L, EMIQ 200 ppm, 28 Days",35.2 mg/L
same,Total Indole Concentration,"Light Exposure YES, O2 8.3 mg/L, EMIQ 0 ppm, 0 Days",36.3 mg/L
same,Total Indole Concentration,"Light Exposure YES, O2 8.3 mg/L, EMIQ 0 ppm, 7 Days",15.3 mg/L
same,Total Indole Concentration,"Light Exposure YES, O2 8.3 mg/L, EMIQ 0 ppm, 14 Days",4.5 mg/L
same,Total Indole Concentration,"Light Exposure YES, O2 8.3 mg/L, EMIQ 0 ppm, 21 Days",0.0 mg/L
same,Total Indole Concentration,"Light Exposure YES, O2 8.3 mg/L, EMIQ 0 ppm, 28 Days",0.0 mg/L
same,Total Indole Concentration,"Light Exposure YES, O2 8.3 mg/L, EMIQ 200 ppm, 0 Days",34.7 mg/L
same,Total Indole Concentration,"Light Exposure YES, O2 8.3 mg/L, EMIQ 200 ppm, 7 Days",32.7 mg/L
same,Total Indole Concentration,"Light Exposure YES, O2 8.3 mg/L, EMIQ 200 ppm, 14 Days",28.4 mg/L
same,Total Indole Concentration,"Light Exposure YES, O2 8.3 mg/L, EMIQ 200 ppm, 21 Days",26.0 mg/L
same,Total Indole Concentration,"Light Exposure YES, O2 8.3 mg/L, EMIQ 200 ppm, 28 Days",22.5 mg/L
same,Total Indole Concentration,"Light Exposure YES, O2 <0.5 mg/L, EMIQ 0 ppm, 0 Days",36.3 mg/L
same,Total Indole Concentration,"Light Exposure YES, O2 <0.5 mg/L, EMIQ 0 ppm, 7 Days",35.9 mg/L
same,Total Indole Concentration,"Light Exposure YES, O2 <0.5 mg/L, EMIQ 0 ppm, 14 Days",36.0 mg/L
same,Total Indole Concentration,"Light Exposure YES, O2 <0.5 mg/L, EMIQ 0 ppm, 21 Days",38.8 mg/L
same,Total Indole Concentration,"Light Exposure YES, O2 <0.5 mg/L, EMIQ 0 ppm, 28 Days",34.6 mg/L
same,Total Indole Concentration,"Light Exposure YES, O2 <0.5 mg/L, EMIQ 200 ppm, 0 Days",34.7 mg/L
same,Total Indole Concentration,"Light Exposure YES, O2 <0.5 mg/L, EMIQ 200 ppm, 7 Days",35.8 mg/L
same,Total Indole Concentration,"Light Exposure YES, O2 <0.5 mg/L, EMIQ 200 ppm, 14 Days",33.9 mg/L
same,Total Indole Concentration,"Light Exposure YES, O2 <0.5 mg/L, EMIQ 200 ppm, 21 Days",35.1 mg/L
same,Total Indole Concentration,"Light Exposure YES, O2 <0.5 mg/L, EMIQ 200 ppm, 28 Days",29.3 mg/L
